This note sets out measurements from US11395847B2, “Acylated GLP-1/GLP-2 dual agonists” (Zealand Pharma A/S, priority 2016, dated 2022).

Molecules are shown by their SMILES. *1 amine or outer side, *2 acyl side, *3 side chain or, on linkers, in order; H or OH if unused. Where a SMILES comes first, the peptide text is derived from it. Side-chain parts run from the residue outwards. [ ]: non-standard residue; d: D form. The star is where a group is joined. C20 diacid = O=C(O)CCCCCCCCCCCCCCCCCCC(=O)*; γGlu = O=C(O)[C@H](CCC(=O)[*:2])N[*:1]; AEEA = NCCOCCOCC(=O)O; Aib = CC(C)(N)C(=O)O

The test has as its target T1, human GLP-2 receptor (Homo sapiens, UniProt O95838, D470N).
T1 construct: expressed in transfected cells
T1 sequence (O95838 1-553 D470N): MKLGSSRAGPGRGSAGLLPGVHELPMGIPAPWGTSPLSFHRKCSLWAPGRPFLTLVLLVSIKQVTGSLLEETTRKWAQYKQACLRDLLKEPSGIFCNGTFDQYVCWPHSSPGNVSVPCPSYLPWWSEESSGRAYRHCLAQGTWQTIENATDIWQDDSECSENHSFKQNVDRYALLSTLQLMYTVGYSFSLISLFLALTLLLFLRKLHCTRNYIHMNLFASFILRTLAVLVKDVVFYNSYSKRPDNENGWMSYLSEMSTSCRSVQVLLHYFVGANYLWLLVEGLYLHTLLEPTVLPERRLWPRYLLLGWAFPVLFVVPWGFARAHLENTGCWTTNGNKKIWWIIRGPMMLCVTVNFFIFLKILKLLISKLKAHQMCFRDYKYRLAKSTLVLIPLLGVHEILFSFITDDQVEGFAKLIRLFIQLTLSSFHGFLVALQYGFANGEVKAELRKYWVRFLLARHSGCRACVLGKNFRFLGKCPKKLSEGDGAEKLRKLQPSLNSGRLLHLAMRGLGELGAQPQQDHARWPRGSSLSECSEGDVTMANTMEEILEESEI
The test can be described thus: GLP-2 receptor potency assay (cAMP ALPHASCREEN, HEK293 cells stably expressing GLP-2 R). The class given is cell-based. The note with it: cAMP response, HEK293 cells expressing human GLP-2 R; read-out: EC50 GLP-2. An excerpt:
One useful in vitro assay for measuring GLP-1 and GLP-2 receptor activity is quantitation of cAMP, i.e. 3′-5′-cyclic adenosine monophosphate, which is a second messenger essential in many biological processes, and one of the most ubiquitous mechanisms for regulating cellular functions.
For subcloning into a mammalian expression vector, primers for subcloning were obtained from DNA-Technology, Risskov, Denmark. The 5′ and 3′ primers used for the PCR reaction include terminal restriction sites for cloning and the context of the 5′ primer is modified to a Kozak consensus without changing the sequence of the product encoded by the ORF. […] The generated PCR product was purified using GFX PCR and Gel band purification kit, digested with restriction enzymes and cloned into the mammalian expression vector using Rapid DNA Ligation Kit. Ligation reaction was transformed to XL10 Gold Ultracompetent cells and colonies were picked for DNA production using ENDOFREE® Plasmid maxi kit. Subsequent sequence analysis was conducted by MWG Eurofins, Germany.
HEK293 cells were transfected using the LIPOFECTAMINE® PLUS transfection method. The day before transfection, HEK293 cells were seeded in two T75 flasks at a density of 2×10^6 cells/T75 flask in cell culturing medium without antibiotics. On the day of transfection, cells were washed with 1× DPBS and medium was replaced with OPTI-MEM© to a volume of 5 mL/T75 flask before addition of LIPOFECTAMINE®-plasmid complexes were added gently and drop wise to the cells in T75 flasks and replaced with growth medium after 3 hours and again to growth medium supplemented with 500 μg/mL G418 after 24 hours. Following 4 weeks in G418 selection, clones were picked and tested in a functional GLP-2 receptor potency assay as described below.
The cAMP ALPHASCREEN® assay from Perkin Elmer was used to quantitate the cAMP response to activation of the GLP1 and GLP2 receptor, respectively. […] Data from test compounds eliciting an increase in the intracellular level of cAMP were normalized relative to the positive and negative control (vehicle) to calculate the EC50 and maximal response from the concentration response curve.

`CC[C@H](C)[C@H](NC(=O)[C@H](Cc1ccccc1)NC(=O)[C@H](CC(=O)O)NC(=O)[C@H](CCCNC(=N)N)NC(=O)[C@H](C)NC(=O)[C@H](C)NC(=O)[C@H](CC(C)C)NC(=O)[C@H](CCCCNC(=O)CC[C@H](NC(=O)CCCCCCCCCCCCCCCCC(=O)O)C(=O)O)NC(=O)[C@H](CC(=O)O)NC(=O)[C@H](CC(C)C)NC(=O)[C@@H](NC(=O)[C@@H](NC(=O)[C@H](C)NC(=O)[C@H](CC(C)C)NC(=O)[C@H](CCC(=O)O)NC(=O)[C@H](CO)NC(=O)[C@@H](NC(=O)[C@H](Cc1ccccc1)NC(=O)[C@@H](NC(=O)CNC(=O)[C@H](CCC(=O)O)NC(=O)C(C)(C)NC(=O)[C@@H](N)Cc1c[nH]cn1)[C@@H](C)O)[C@@H](C)O)[C@@H](C)O)[C@@H](C)CC)C(=O)N[C@@H](C)C(=O)N[C@@H](Cc1c[nH]c2ccccc12)C(=O)N[C@@H](CC(C)C)C(=O)N[C@H](C(=O)N[C@@H](CCC(=O)O)C(=O)N[C@@H](Cc1c[nH]cn1)C(=O)N[C@@H](CCCCN)C(=O)N[C@H](C(=O)N[C@H](C(=O)N[C@@H](CC(=O)O)C(=O)O)[C@@H](C)O)[C@@H](C)CC)[C@@H](C)CC` [Compound 12] (HELM PEPTIDE1{H.[Aib].E.G.T.F.T.S.E.L.A.T.I.L.D.K.L.A.A.R.D.F.I.A.W.L.I.E.H.K.I.T.D}|PEPTIDE2{[O=C(O)CCCCCCCCCCCCCCCCC(=O)[*:2]].[gGlu]}$PEPTIDE1,PEPTIDE2,16:R3-2:R2$$$V2.0): the EC50 was 0.11 nM.

Take `CC[C@H](C)[C@H](NC(=O)[C@H](Cc1ccccc1)NC(=O)[C@H](CC(=O)O)NC(=O)[C@H](CCCNC(=N)N)NC(=O)[C@H](C)NC(=O)[C@H](C)NC(=O)[C@H](CCCCN)NC(=O)[C@H](CCCCNC(=O)COCCOCCNC(=O)COCCOCCNC(=O)CC[C@H](NC(=O)CCCCCCCCCCCCCCCCCCC(=O)O)C(=O)O)NC(=O)[C@H](CC(=O)O)NC(=O)[C@H](CC(C)C)NC(=O)[C@@H](NC(=O)[C@@H](NC(=O)[C@H](C)NC(=O)[C@H](CC(C)C)NC(=O)[C@H](CCC(=O)O)NC(=O)[C@H](CO)NC(=O)[C@@H](NC(=O)[C@H](Cc1ccccc1)NC(=O)[C@H](CO)NC(=O)CNC(=O)[C@H](CCC(=O)O)NC(=O)C(C)(C)NC(=O)[C@@H](N)Cc1c[nH]cn1)[C@@H](C)O)[C@@H](C)O)[C@@H](C)CC)C(=O)N[C@@H](C)C(=O)N[C@@H](Cc1c[nH]c2ccccc12)C(=O)N[C@@H](CC(C)C)C(=O)N[C@H](C(=O)N[C@@H](CCC(=O)O)C(=O)N[C@@H](Cc1c[nH]cn1)C(=O)N[C@@H](CCCCN)C(=O)N[C@H](C(=O)N[C@H](C(=O)N[C@@H](CC(=O)O)C(=O)O)[C@@H](C)O)[C@@H](C)CC)[C@@H](C)CC` [Compound 43] (H-H[Aib]EGSFTSELATILDK([AEEA-AEEA-γGlu-C20 diacid])KAARDFIAWLIEHKITD-OH): the EC50 was found to be 0.15 nM.

`CC[C@H](C)[C@H](NC(=O)[C@H](Cc1ccccc1)NC(=O)[C@H](CC(=O)O)NC(=O)[C@H](CCCCNC(=O)COCCOCCNC(=O)COCCOCCNC(=O)CC[C@H](NC(=O)CCCCCCCCCCCCCCCCCCC(=O)O)C(=O)O)NC(=O)[C@H](C)NC(=O)[C@H](C)NC(=O)[C@H](CCC(N)=O)NC(=O)[C@H](CCC(=O)O)NC(=O)[C@H](CC(=O)O)NC(=O)[C@H](CC(C)C)NC(=O)[C@@H](NC(=O)[C@@H](NC(=O)[C@H](C)NC(=O)[C@H](CC(C)C)NC(=O)[C@H](CCC(=O)O)NC(=O)[C@H](CO)NC(=O)[C@@H](NC(=O)[C@H](Cc1ccccc1)NC(=O)[C@@H](NC(=O)CNC(=O)[C@H](CCC(=O)O)NC(=O)C(C)(C)NC(=O)[C@@H](N)Cc1c[nH]cn1)[C@@H](C)O)[C@@H](C)O)[C@@H](C)O)[C@@H](C)CC)C(=O)N[C@@H](C)C(=O)N[C@@H](Cc1c[nH]c2ccccc12)C(=O)N[C@@H](CC(C)C)C(=O)N[C@H](C(=O)N[C@@H](CCC(=O)O)C(=O)N[C@@H](Cc1c[nH]cn1)C(=O)N[C@@H](CCCCN)C(=O)N[C@H](C(=O)N[C@H](C(=O)N[C@@H](CC(=O)O)C(=O)O)[C@@H](C)O)[C@@H](C)CC)[C@@H](C)CC` [Compound 46] (H-H[Aib]EGTFTSELATILDEQAAK([AEEA-AEEA-γGlu-C20 diacid])DFIAWLIEHKITD-OH): the EC50 stood at 0.38 nM.

For the molecule `CC[C@H](C)[C@H](NC(=O)[C@H](Cc1ccccc1)NC(=O)[C@H](CC(=O)O)NC(=O)[C@H](CCCNC(=N)N)NC(=O)[C@H](C)NC(=O)[C@H](C)NC(=O)[C@H](CCC(N)=O)NC(=O)[C@H](CCCCNC(=O)COCCOCCNC(=O)[C@H](CCCCN)NC(=O)[C@H](CCC(=O)O)NC(=O)[C@H](CCCCN)NC(=O)CC[C@H](NC(=O)CCCCCCCCCCCCCCCCCCC(=O)O)C(=O)O)NC(=O)[C@H](CC(=O)O)NC(=O)[C@H](CC(C)C)NC(=O)[C@@H](NC(=O)[C@@H](NC(=O)[C@H](C)NC(=O)[C@H](CC(C)C)NC(=O)[C@H](CCC(=O)O)NC(=O)[C@H](CO)NC(=O)[C@@H](NC(=O)[C@H](Cc1ccccc1)NC(=O)[C@H](CO)NC(=O)CNC(=O)[C@H](CCC(=O)O)NC(=O)C(C)(C)NC(=O)[C@@H](N)Cc1c[nH]cn1)[C@@H](C)O)[C@@H](C)O)[C@@H](C)CC)C(=O)N[C@@H](C)C(=O)N[C@@H](Cc1c[nH]c2ccccc12)C(=O)N[C@@H](CC(C)C)C(=O)N[C@H](C(=O)N[C@@H](CCC(=O)O)C(=O)N[C@@H](Cc1c[nH]cn1)C(=O)N[C@@H](CCCCN)C(=O)N[C@H](C(=O)N[C@H](C(=O)N[C@@H](CC(=O)O)C(=O)O)[C@@H](C)O)[C@@H](C)CC)[C@@H](C)CC` [Compound 57] (HELM PEPTIDE1{H.[Aib].E.G.S.F.T.S.E.L.A.T.I.L.D.K.Q.A.A.R.D.F.I.A.W.L.I.E.H.K.I.T.D}|PEPTIDE2{[O=C(O)CCCCCCCCCCCCCCCCCCC(=O)[*:2]].[gGlu].K.E.K.[O=C(COCCOCCN[*:1])[*:2]]}$PEPTIDE1,PEPTIDE2,16:R3-6:R2$$$V2.0), the EC50 worked out at 0.083 nM.

Take `CC[C@H](C)[C@H](NC(=O)[C@H](Cc1ccccc1)NC(=O)[C@H](CC(=O)O)NC(=O)[C@H](CCCNC(=N)N)NC(=O)[C@H](C)NC(=O)[C@H](C)NC(=O)[C@H](CCCCN)NC(=O)[C@H](CCCCNC(=O)COCCOCCNC(=O)[C@H](CCCCN)NC(=O)[C@H](CCC(=O)O)NC(=O)[C@H](CCCCN)NC(=O)CC[C@H](NC(=O)CCCCCCCCCCCCCCCCCCC(=O)O)C(=O)O)NC(=O)[C@H](CC(=O)O)NC(=O)[C@H](CC(C)C)NC(=O)[C@@H](NC(=O)[C@@H](NC(=O)[C@H](C)NC(=O)[C@H](CC(C)C)NC(=O)[C@H](CCC(=O)O)NC(=O)[C@H](CO)NC(=O)[C@@H](NC(=O)[C@H](Cc1ccccc1)NC(=O)[C@H](CO)NC(=O)CNC(=O)[C@H](CCC(=O)O)NC(=O)C(C)(C)NC(=O)[C@@H](N)Cc1c[nH]cn1)[C@@H](C)O)[C@@H](C)O)[C@@H](C)CC)C(=O)N[C@@H](C)C(=O)N[C@@H](Cc1c[nH]c2ccccc12)C(=O)N[C@@H](CC(C)C)C(=O)N[C@H](C(=O)N[C@@H](CCC(=O)O)C(=O)N[C@@H](Cc1c[nH]cn1)C(=O)N[C@@H](CCCCN)C(=O)N[C@H](C(=O)N[C@H](C(=O)N[C@@H](CC(=O)O)C(=O)O)[C@@H](C)O)[C@@H](C)CC)[C@@H](C)CC` [Compound 59] (HELM PEPTIDE1{H.[Aib].E.G.S.F.T.S.E.L.A.T.I.L.D.K.K.A.A.R.D.F.I.A.W.L.I.E.H.K.I.T.D}|PEPTIDE2{[O=C(O)CCCCCCCCCCCCCCCCCCC(=O)[*:2]].[gGlu].K.E.K.[O=C(COCCOCCN[*:1])[*:2]]}$PEPTIDE1,PEPTIDE2,16:R3-6:R2$$$V2.0): the EC50 is 0.11 nM.
